Earlier results, collected in patent publication US10905116B2, “Antimicrobial fabric assemblies” (Higher Dimension Materials, Inc., priority 2016, dated 2021).

What was measured:
E. coli = conditions: against E. coli

Row | SMILES | silver ion concentration enough to cause antimicrobial activity (bacterium; released from silver nanoparticles confined in nanoscale cages, conditions of normal water, estimated) [parts per billion] | number of silver ions to kill a single bacterium (bacterium; reported) | MIC value (Minimum Inhibitory Value) (E. coli) [µg/mL]
1 | [Ag+] [silver ion] | 50 | about 100 | –
2 | [Ag] [silver] | – | – | 0.05 to 0.1
